Literature values as cited in patent US12133892B2, “Methods and compositions for increasing susceptibility to radiation treatment by inhibiting suppression of numerical chromosomal instability of cancer cells” (MEMORIAL SLOAN KETTERING CANCER CENTER, priority 2015, dated 2024).

Legend:
Bub1 = Bub1 (Homo sapiens, UniProt O43683)
Kif2b = conditions: read-out: IC50 in inhibiting Kif2b
MCAK = target: T1, MCAK (Homo sapiens, UniProt Q99661); conditions: read-out: IC50 in inhibiting MCAK
T1 sequence (Q99661 1-725): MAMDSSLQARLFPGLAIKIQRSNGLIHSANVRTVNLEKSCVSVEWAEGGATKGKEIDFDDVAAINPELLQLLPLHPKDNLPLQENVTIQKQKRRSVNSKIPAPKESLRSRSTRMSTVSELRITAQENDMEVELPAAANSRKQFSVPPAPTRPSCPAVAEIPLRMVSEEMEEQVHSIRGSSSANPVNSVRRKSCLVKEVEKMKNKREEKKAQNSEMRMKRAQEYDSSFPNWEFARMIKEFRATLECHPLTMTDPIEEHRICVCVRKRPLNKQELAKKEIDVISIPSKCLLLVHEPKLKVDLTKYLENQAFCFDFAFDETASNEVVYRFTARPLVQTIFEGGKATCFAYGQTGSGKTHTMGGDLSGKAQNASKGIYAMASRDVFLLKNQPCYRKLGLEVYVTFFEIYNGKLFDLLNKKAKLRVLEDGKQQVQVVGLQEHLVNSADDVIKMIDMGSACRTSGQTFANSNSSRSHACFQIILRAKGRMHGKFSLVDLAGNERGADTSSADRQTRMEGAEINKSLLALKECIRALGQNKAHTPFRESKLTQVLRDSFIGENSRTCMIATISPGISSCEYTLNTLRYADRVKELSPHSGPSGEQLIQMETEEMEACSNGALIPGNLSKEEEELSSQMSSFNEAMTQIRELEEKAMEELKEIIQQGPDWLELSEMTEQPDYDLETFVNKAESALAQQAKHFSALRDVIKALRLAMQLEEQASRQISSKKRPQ

human glioblastoma = conditions: 100 mg/kg
[1] = mice, 7 days, 7.5, 22.5, 75.0 mg/kg twice a day oral
[2] = tested on: triple negative breast cancer, colon cancer and liver cancer; conditions: animal models of triple negative breast cancer
breast cancer model = conditions: mice, twice a day for 28 days, orally 10, 25, 50 mg/kg
PLK4 = target: T2, PLK4 (Homo sapiens, UniProt O00444); conditions: in vitro; read-out: inhibition constant (Ki)
T2 sequence (O00444 1-970): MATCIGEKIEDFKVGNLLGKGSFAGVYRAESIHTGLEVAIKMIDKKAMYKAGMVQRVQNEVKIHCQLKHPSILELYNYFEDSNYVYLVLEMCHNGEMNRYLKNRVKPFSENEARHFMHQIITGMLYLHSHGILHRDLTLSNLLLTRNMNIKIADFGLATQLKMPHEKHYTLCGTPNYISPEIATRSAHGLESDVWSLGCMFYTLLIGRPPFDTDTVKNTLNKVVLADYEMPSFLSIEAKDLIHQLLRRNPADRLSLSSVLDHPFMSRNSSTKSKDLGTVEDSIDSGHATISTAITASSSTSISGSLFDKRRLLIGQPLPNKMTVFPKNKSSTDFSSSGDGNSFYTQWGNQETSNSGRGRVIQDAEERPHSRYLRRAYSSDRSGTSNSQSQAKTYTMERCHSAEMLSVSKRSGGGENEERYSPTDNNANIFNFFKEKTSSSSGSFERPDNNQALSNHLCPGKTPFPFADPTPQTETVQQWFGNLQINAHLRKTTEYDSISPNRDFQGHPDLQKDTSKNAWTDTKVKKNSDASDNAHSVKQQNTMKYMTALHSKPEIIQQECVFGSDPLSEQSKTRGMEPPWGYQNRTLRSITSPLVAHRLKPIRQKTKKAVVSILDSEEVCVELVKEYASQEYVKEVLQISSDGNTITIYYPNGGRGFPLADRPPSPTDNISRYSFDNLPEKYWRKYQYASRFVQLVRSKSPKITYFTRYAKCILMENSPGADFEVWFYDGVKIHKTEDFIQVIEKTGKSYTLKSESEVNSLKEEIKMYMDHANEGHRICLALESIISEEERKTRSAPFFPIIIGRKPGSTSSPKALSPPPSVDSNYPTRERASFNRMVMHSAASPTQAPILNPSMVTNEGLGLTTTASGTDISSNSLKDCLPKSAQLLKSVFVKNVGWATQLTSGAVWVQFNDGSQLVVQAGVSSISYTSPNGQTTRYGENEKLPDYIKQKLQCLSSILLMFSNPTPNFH

Bub1, sequence (O43683 whole entry, species assumed): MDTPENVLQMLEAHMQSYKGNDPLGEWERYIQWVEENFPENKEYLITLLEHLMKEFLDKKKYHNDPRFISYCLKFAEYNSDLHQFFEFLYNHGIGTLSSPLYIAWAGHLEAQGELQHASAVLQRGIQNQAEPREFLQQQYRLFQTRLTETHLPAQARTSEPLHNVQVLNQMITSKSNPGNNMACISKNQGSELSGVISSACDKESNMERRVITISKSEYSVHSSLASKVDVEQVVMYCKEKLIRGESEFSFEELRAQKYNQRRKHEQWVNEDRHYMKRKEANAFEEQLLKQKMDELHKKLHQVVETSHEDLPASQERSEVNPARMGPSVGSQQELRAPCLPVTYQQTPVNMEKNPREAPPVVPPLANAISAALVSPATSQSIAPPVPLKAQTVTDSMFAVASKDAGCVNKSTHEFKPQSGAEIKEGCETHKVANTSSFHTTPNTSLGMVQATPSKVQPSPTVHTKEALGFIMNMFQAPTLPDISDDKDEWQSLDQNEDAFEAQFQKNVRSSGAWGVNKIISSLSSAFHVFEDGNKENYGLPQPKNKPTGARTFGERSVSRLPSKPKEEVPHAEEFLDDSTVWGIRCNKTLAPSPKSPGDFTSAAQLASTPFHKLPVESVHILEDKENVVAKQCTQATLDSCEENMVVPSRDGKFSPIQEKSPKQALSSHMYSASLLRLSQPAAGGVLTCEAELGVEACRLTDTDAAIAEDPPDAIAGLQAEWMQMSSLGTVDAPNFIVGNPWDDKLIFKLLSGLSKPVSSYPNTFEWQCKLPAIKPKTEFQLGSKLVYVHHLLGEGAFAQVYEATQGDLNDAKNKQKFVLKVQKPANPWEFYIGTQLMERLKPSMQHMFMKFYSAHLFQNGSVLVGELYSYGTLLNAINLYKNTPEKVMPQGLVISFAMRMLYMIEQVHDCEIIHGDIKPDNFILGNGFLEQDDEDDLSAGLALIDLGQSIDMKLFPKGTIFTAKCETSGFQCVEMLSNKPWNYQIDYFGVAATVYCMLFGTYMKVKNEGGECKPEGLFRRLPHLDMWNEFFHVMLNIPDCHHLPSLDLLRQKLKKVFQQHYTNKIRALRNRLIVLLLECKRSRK

Structure (SMILES): CC(C)(C)n1nc(Cc2ccccc2O)c2c(N)ncnc21 [2OH-BNPP1]
- IC50 (Bub1): ~0.25 µM

Structure (SMILES): COc1ccc2c(c1)[C@]1(C[C@H]1c1ccc3c(/C=C/c4ccc(CN5C[C@@H](C)O[C@@H](C)C5)cc4)n[nH]c3c1)C(=O)N2 [CFI-400945]
- chromosome missegregation rates (breast cancer cell lines): increase chromosome missegregation rates

Structure (SMILES): CC1=C(C(=O)OC(C)C)C(c2ccc(Cl)cc2)n2c(s/c(=C\c3ccc(OCC(=O)O)cc3)c2=O)=N1 (stereo not drawn) [DHTP, (Z)-2-(4-((5-(4-chlorophenyl)-6-(isopropoxycarbonyl)-7-methyl-3-oxo-3,5-dihydro-2H-thiazolo[3,2-a]pyrimidin-2-ylidene)methyl)phenoxy)acetic acid]
- IC50 (Kif2b): 1.2 µM
- IC50 (MCAK): 4.6 µM

Structure (SMILES): CCc1cccc(CC)c1NC(=O)c1nn(C)c2c1CCc1cnc(Nc3ccc(C(=O)NC4CCN(C)CC4)cc3OC(F)(F)F)nc1-2 [NMS-P715]
- radiosensitization of human glioblastoma (human glioblastoma): enhances radiosensitization of human glioblastoma

Structure (SMILES): COc1cc2c(cc1F)C(c1ccccc1Cl)=Nc1c(n[nH]c1C)N2 [R1530]
- expression of mitotic checkpoint kinase BubR1 (BubR1): downregulates

Structure (SMILES): COc1ccc(Oc2cc(C)c(-c3csc(NC(=O)c4ccncc4)n3)c(C)c2)cc1 [TAI-1]
- change in body weight, organ weight, and plasma indices [1]: no significant change
- oral efficacy in vivo [2]: effective orally

Structure (SMILES): COCCOc1cnc(Sc2cc(C)c(-c3csc(NC(=O)c4ccncc4)n3)c(C)c2)cn1 [TAI-95]
- oral efficacy in vivo (breast cancer model): excellent oral efficacy

Structure (SMILES): COc1c(Nc2cc(C)[nH]n2)nc(Sc2ccc(S(=O)(=O)Cc3cccc([N+](=O)[O-])c3F)cc2F)nc1N1CCCCC1 [centrinone-B]
- centrosome depletion at concentration (centrosome): 500 nM
- Ki (PLK4): 0.0006 µM

Structure (SMILES): COc1c(Nc2cc(C)[nH]n2)nc(Sc2ccc(S(=O)(=O)Cc3cccc([N+](=O)[O-])c3F)cc2F)nc1N1CCOCC1 [centrinone]
- centrosome depletion at concentration (centrosome): 100 nM
